Data reported in ChEMBL document CHEMBL1770065, “Discovery of a clinical candidate from the structurally unique dioxa-bicyclo[3.2.1]octane class of sodium-dependent glucose cotransporter 2 inhibitors” (J Med Chem, 2011).
pIC50: −log10 of the molar value.

Legend:
[1] = test system: Plasma; assay: Fraction unbound in human plasma at 1000 ng/mL by equilibrium dialysis method; assay type: ADME, cell-free
[2] = Lipophilicity, log D of the compound; assay type: physicochemical; details: octanol/water
[3] = test system: Rattus norvegicus; assay: Average free plasma concentration in Sprague-Dawley rat at 30 mg/kg, po after 24 hrs; assay type: ADME, organism-based; set-up: dose 30 mg/kg, route oral; details: in vivo
[4] = molecular target: T1, Organic anion transporter 3 (Homo sapiens, UniProt Q8TCC7); assay: Inhibition of human OAT3
T1 sequence (Q8TCC7 whole entry): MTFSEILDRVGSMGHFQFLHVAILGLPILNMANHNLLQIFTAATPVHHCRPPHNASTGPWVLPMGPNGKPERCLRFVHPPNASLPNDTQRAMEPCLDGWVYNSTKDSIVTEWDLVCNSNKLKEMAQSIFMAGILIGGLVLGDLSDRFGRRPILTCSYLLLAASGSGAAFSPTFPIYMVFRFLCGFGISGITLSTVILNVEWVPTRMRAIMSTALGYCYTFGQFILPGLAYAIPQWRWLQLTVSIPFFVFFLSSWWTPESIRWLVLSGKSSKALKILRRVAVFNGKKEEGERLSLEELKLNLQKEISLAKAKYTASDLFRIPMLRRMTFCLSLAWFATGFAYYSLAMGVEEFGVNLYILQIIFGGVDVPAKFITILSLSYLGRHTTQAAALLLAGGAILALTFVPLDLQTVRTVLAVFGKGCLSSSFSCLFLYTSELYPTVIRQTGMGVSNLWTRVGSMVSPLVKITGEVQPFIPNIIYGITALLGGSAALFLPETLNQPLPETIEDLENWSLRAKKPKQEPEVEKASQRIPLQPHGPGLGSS

[5] = molecular target: T2, Sodium/glucose cotransporter 2 (Rattus norvegicus, UniProt P53792); assay: Inhibition of rat SGLT2
T2 sequence (P53792 whole entry): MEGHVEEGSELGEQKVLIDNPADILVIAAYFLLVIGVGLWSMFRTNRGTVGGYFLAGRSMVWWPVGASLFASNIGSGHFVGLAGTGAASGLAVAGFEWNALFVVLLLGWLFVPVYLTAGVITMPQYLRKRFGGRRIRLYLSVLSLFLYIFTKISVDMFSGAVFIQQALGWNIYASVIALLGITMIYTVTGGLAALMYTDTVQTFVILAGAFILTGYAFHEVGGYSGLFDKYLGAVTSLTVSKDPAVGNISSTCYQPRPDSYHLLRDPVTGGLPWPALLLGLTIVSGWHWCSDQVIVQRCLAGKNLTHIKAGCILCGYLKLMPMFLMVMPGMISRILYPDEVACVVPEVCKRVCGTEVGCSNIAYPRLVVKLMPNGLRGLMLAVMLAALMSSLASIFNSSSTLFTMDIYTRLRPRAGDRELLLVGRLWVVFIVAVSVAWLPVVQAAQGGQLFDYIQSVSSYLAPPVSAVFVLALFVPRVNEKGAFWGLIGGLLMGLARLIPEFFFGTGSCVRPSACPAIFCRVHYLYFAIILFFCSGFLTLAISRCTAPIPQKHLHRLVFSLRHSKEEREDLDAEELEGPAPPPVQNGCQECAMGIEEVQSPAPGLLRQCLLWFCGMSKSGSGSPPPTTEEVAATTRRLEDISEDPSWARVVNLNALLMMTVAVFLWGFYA

[6] = molecular target: T3, Solute carrier family 22 member 6 (Homo sapiens, UniProt Q4U2R8); assay: Inhibition of human OAT1
T3 sequence (Q4U2R8 whole entry): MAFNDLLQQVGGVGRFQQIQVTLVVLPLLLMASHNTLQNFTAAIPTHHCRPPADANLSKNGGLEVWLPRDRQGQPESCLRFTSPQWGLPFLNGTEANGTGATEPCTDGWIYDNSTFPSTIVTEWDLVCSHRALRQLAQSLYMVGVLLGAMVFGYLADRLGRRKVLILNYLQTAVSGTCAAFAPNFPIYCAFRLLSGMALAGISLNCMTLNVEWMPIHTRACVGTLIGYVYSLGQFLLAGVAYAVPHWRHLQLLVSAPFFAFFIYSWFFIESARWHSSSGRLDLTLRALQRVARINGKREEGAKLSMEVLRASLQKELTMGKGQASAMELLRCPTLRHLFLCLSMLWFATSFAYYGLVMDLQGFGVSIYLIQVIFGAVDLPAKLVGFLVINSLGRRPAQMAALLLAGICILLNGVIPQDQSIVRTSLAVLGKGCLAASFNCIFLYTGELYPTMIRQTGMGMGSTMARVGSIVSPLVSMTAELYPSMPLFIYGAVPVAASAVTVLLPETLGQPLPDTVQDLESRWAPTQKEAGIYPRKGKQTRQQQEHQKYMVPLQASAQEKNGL

[7] = test system: Plasma; assay: Fraction unbound in rat plasma at 1000 ng/mL by equilibrium dialysis method; assay type: ADME, cell-free
[8] = test system: Rattus norvegicus; assay: Inhibition of SGLT2 in po dosed Sprague-Dawley rat after 24 hrs; assay type: functional, organism-based
[9] = Oral bioavailability in Sprague-Dawley rat at 5 mg/kg; assay type: ADME, organism-based; details: in vivo
[10] = Tmax in Sprague-Dawley rat at 5 mg/kg, po; assay type: ADME, organism-based; set-up: dose 5 mg/kg, route oral; details: in vivo
[11] = molecular target: T4, Sodium/glucose cotransporter 2 (Homo sapiens, UniProt P31639); assay: Inhibition of human SGLT2 expressed in CHO cells assessed as inhibition of methyl alpha-D-glucopyranoside uptake after 1 hr; assay type: cell-based
T4 sequence (P31639 whole entry): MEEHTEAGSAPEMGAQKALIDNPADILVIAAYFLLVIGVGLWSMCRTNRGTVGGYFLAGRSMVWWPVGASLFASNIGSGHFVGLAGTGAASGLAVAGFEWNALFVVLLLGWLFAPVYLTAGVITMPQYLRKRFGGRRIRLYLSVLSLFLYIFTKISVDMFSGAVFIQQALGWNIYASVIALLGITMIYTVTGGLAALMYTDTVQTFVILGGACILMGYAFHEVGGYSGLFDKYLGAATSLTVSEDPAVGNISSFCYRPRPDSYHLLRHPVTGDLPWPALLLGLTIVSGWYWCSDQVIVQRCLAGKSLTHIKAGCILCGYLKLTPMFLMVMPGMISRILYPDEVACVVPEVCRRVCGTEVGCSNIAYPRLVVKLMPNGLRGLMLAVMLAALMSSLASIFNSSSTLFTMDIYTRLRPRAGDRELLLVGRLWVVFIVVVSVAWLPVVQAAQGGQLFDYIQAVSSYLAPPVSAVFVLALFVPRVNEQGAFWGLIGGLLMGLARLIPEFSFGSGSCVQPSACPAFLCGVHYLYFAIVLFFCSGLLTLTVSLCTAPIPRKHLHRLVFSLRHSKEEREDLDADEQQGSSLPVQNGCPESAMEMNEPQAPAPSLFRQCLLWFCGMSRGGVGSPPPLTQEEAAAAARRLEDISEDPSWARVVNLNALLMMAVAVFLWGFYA

[12] = Volume of distribution at steady state in Sprague-Dawley rat at 2 mg/kg, iv; assay type: ADME, organism-based; set-up: dose 2 mg/kg, route intravenous; details: in vivo, read-out: Vdss
[13] = Apparent intrinsic clearance in human hepatocytes assessed per million of cells; assay type: ADME, cell-based, Liver, Hepatocyte

CCOc1ccc(Cc2cc([C@]34OC[C@](CO)(O3)[C@@H](O)[C@H](O)[C@H]4O)ccc2Cl)cc1 [ERTUGLIFLOZIN]
Fu [1]: 6.4%
logD [2]: 3.6
Cp [3]: 408 nM
inhibition (INH) [4]: Not Active
pIC50 [5]: 8.94
inhibition (INH) [6]: Not Active
Fu [7]: 4%
pIC50 [8]: 8.74
bioavailability [9]: 69%
Tmax [10]: 1 h
pIC50 [11]: 9.06
Vd [12]: 1.13 L/kg
hepatocyte CLint [13]: 4.5 µL/min/1e6 cells
